Here are results for 39 compounds from patent publication US12240840B2, “Amide-substituted heterocyclic compounds for the treatment of conditions related to the modulation of IL-12, IL-23 and/or IFN-alpha” (BRISTOL-MYERS SQUIBB COMPANY, priority 2018, dated 2025).

Bounds are passed on as bounds.

This assay deals with IFNα-induced pSTAT5 (pY694) in CD3 positive cells of human whole blood. Put plainly: IFNα-Induced STAT Phosphorylation in Human Whole Blood. As to conditions: Homo sapiens, 1 h compound incubation, 1000 U/mL recombinant human IFNα A/D for 15 min, pSTAT5 in CD3 positive population, read-out: Human WB IFNα-Induced Stat Phosph. (IC50). The assay is classed as cell-based. In outline:
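Read-out is median fluorescence intensity of pSTAT5 (pY694) in the CD3-positive gate, by flow cytometry after fix/lyse and permeabilization. Before that, whole human blood anticoagulated with EDTA or ACD-A received compound for an hour and 1000 U/mL IFNα A/D for 15 min.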

Turning to `COc1c(Nc2cc(NC(=O)C3CC3)nnc2C(N)=O)cccc1-c1ncc(C(=O)NC(C)C)s1` [Example 404], the IC50 is 110 nM.
Under `[2H]C([2H])([2H])NC(=O)c1nnc(NC(=O)C2CC2)cc1Nc1cccc(-c2cc(C(=O)N3CC4CN(C)CC4C3)n(C)n2)c1OC` (stereo not drawn) [Example 491] stands 260 nM; under `[2H]C([2H])([2H])NC(=O)c1nnc(NC(=O)C2CC2)cc1Nc1cccc(-c2ncc(C(=O)NCc3ccccc3)s2)c1OC` [Example 289], 150 nM; under `[2H]C([2H])([2H])NC(=O)c1nnc(NC(=O)C2CC2)cc1Nc1cccc(-c2ncc(C(=O)NCCNC(C)=O)s2)c1OC` [Example 304], 130 nM.
With `[2H]C([2H])([2H])NC(=O)c1nnc(NC(=O)C2CC2)cc1Nc1cccc(-c2ncc(C(=O)NCC#N)s2)c1OC` [Example 300], the IC50 worked out at 330 nM.
For `[2H]C([2H])([2H])NC(=O)c1nnc(NC(=O)C2CC2)cc1Nc1cccc(-c2nc(CNC(=O)CN3CCN(C)CC3)no2)c1OC` [Example 160], the IC50 stood at 1790 nM.
With `[2H]C([2H])([2H])NC(=O)c1nnc(NC(=O)C2CC2)cc1Nc1cccc(-c2ncc(C(=O)N3CC4CN(C)CC4C3)s2)c1OC` (stereo not drawn) [Example 274] the figure was 50 nM; with `[2H]C([2H])([2H])NC(=O)c1nnc(Nc2ccc(OC)nn2)cc1Nc1cccc(-c2cnn(C)n2)c1OC` [Example 451, 4-((2-methoxy-3-(2-methyl-2H-1,2,3-triazol-4-yl)phenyl)amino)-6-((6-methoxypyridazin-3-yl)amino)-N-(methyl-d3)pyridazine-3-carboxamide], 60 nM.
Under `[2H]C([2H])([2H])NC(=O)c1nnc(NC(=O)C2CC2)cc1Nc1cccc(-c2nc([C@H](NC(=O)COC)[C@H](C)O)no2)c1OC` [Example 205] stands 850 nM; under `[2H]C([2H])([2H])NC(=O)c1nnc(NC(=O)C2CC2)cc1Nc1cccc(-c2cnn(CCNS(C)(=O)=O)c2)c1OC` [Example 560], 2210 nM.
As to `[2H]C([2H])([2H])NC(=O)c1nnc(NC(=O)C2CC2)cc1Nc1cc(F)cc(-c2cc(C(=O)N3CCOCC3)n(C)n2)c1OC` [Example 485], the IC50 came out at 130 nM.
With `COc1c(Nc2cc(NC(=O)C3CC3)nnc2C(N)=O)cccc1-c1ncc(C(=O)NCc2cccc(Cl)c2)o1` [Example 421] the figure was 290 nM.
Take `[2H]C([2H])([2H])NC(=O)c1nnc(NC(=O)C2CC2)cc1Nc1cccc(-c2nc(C)c(C(=O)N3CCNC(=O)C3)s2)c1OC` [Example 363]: the half-inhibitory concentration (IC50) amounted to 240 nM.
On to `COc1c(Nc2cc(NC(=O)C3CC3)nnc2C(N)=O)cccc1-c1noc([C@@H](C)N(C)S(C)(=O)=O)n1` [Example 52], for which the IC50 is 90 nM.
Under `[2H]C([2H])([2H])NC(=O)c1nnc(NC(=O)C2CC2)cc1Nc1cccc(-c2cc(C(=O)NCC(O)CO)n(C)n2)c1OC` (stereo not drawn) [Example 521] stands 2410 nM; under `[2H]C([2H])([2H])NC(=O)c1nnc(NC(=O)C2CC2)cc1Nc1cccc(-c2noc(CN3CC(O)C3)n2)c1OC` [Example 80], 110 nM; under `[2H]C([2H])([2H])NC(=O)c1nnc(NC(=O)C2CC2)cc1Nc1cccc(-c2cc(C(=O)NC(C)C)n(C)n2)c1OC` [Example 535], 1500 nM.
For the compound `[2H]C([2H])([2H])NC(=O)c1nnc(NC(=O)C2CC2)cc1Nc1cccc(-c2noc(C(CCC)C(=O)NCCOC)n2)c1OC` (stereo not drawn) [Example 43], the half-maximal inhibitory concentration (IC50) was 170 nM.
As to `[2H]C([2H])([2H])NC(=O)c1nnc(NC(=O)C2CC2)cc1Nc1cccc(-c2nc(CNC(=O)CC#N)no2)c1OC` [Example 148], the half-inhibitory concentration (IC50) was determined as 1820 nM.
`COc1c(Nc2cc(NC(=O)C3CC3)nnc2C(N)=O)cccc1-c1noc(CNS(=O)(=O)C2CC2)n1` [Example 49]: the half-inhibitory concentration (IC50) worked out at 50 nM.
Under `[2H]C([2H])([2H])NC(=O)c1cnc(NC(=O)C2CC2)cc1Nc1cccc(-c2nc(C3(N)CC3)no2)c1OC` [Example 212] stands 320 nM; under `COc1c(Nc2cc(N)nnc2C(N)=O)cccc1-c1ncc(C(=O)NCCC2CCCN2C)s1` (stereo not drawn) [Example 377], 1410 nM; under `[2H]C([2H])([2H])NC(=O)c1nnc(Nc2cc(C)n(C)n2)cc1Nc1cccc(-c2ncc(C(=O)N3CCS(=O)(=O)CC3)s2)c1OC` [Example 382], 100 nM.
With `[2H]C([2H])([2H])NC(=O)c1nnc(NC(=O)C2CC2)cc1Nc1cccc(-c2nc(C(C)(C)O)no2)c1OC` [Example 186] the figure was 790 nM.
Under `[2H]C([2H])([2H])NC(=O)c1cnc(NC(=O)C2CC2)cc1Nc1cccc(-c2nc(CN3CCCC3)no2)c1OC` [Example 215] stands 150 nM; under `[2H]C([2H])([2H])NC(=O)c1nnc(NC(=O)C2CC2)cc1Nc1cccc(-c2ncc(C(=O)N3CCC(N4CCN(CCO)CC4)CC3)s2)c1OC` [Example 342], 80 nM.
Take `[2H]C([2H])([2H])NC(=O)c1nnc(NC(=O)C2CC2)cc1Nc1cccc(-c2cnn(CCNS(C)(=O)=O)n2)c1OC` [Example 434]: the half-inhibitory concentration (IC50) is 160 nM.
With `[2H]C([2H])([2H])NC(=O)c1nnc(NC(=O)C2CC2)cc1Nc1cccc(-c2cc(C(=O)NCCCOC)n(C)n2)c1OC` [Example 527] the figure was 950 nM; with `[2H]C([2H])([2H])NC(=O)c1nnc(NC(=O)C2CC2)cc1Nc1cccc(-c2nc(CN(C)C(=O)CN(C)C)no2)c1OC` [Example 172], 1440 nM.
Regarding `[2H]C([2H])([2H])NC(=O)c1nnc(NC(=O)C2CC2)cc1Nc1cccc(-c2nc([C@H](CO)NC(=O)CC)no2)c1OC` [Example 198], the half-inhibitory concentration (IC50) is 1650 nM.
Under `[2H]C([2H])([2H])NC(=O)c1nnc(NC(=O)C2CC2)cc1Nc1cccc(-c2nc(C)c(C(=O)N(C)C)s2)c1OC` [Example 367] stands 60 nM; under `[2H]C([2H])([2H])NC(=O)c1nnc(NC(=O)C2CC2)cc1Nc1cccc(-c2ncc(C(=O)N3CCc4ccccc4C3)s2)c1OC` [Example 298], over 10000 nM.
With `[2H]C([2H])([2H])NC(=O)c1nnc(NC(=O)C2CC2)cc1Nc1cccc(-c2ncc(CNC(=O)OC)s2)c1OC` [Example 266] the figure was 2530 nM; with `[2H]C([2H])([2H])c1c(NC(=O)C2CC2)nnc(C(N)=O)c1Nc1cccc(-c2nc(CN3CCN(C(C)=O)CC3)no2)c1OC` [Example 120, 4-((3-(3-((4-acetylpiperazin-1-yl)methyl)-1,2,4-oxadiazol-5-yl)-2-methoxyphenyl)amino)-6-(cyclopropanecarboxamido)-trideuteromethylpyridazine-3-carboxamide], 150 nM.
In the case of `[2H]C([2H])([2H])NC(=O)c1nnc(NC(=O)C2CC2)cc1Nc1cccc(-c2cc(C(=O)N3CCOCC3)n(C)n2)c1OC` [Example 459], the concentration for half-maximal inhibition (IC50) was determined as 80 nM.
Consider `[2H]C([2H])([2H])NC(=O)c1nnc(NC(=O)C2CC2)cc1Nc1cccc(-c2ncc(CNC(=O)OC(C)(C)C)s2)c1OC` [Example 259], for which the 50% inhibitory concentration (IC50) is over 10000 nM.
`COc1c(Nc2cc(NC(=O)C3CC3)nnc2C(N)=O)cccc1-c1noc(CN(C)S(=O)(=O)C(C)C)n1` [Example 58]: the IC50 came out at 11 nM.
Under `[2H]C([2H])([2H])NC(=O)c1cnc(Nc2cc(C(C)(C)O)ccn2)cc1Nc1cc(F)cc(-c2csc(C(=O)NCCOC)n2)c1OC` [Example 573] stands 2000 nM; under `[2H]C([2H])([2H])NC(=O)c1nnc(NC(=O)C2CC2)cc1Nc1cccc(-c2nc(-c3ccccc3)no2)c1OC` [Example 123], over 10000 nM.

Broadly, the IC50 is the concentration that gives 50% inhibition.
